Measured values taken from ChEMBL document CHEMBL5260848, “Recent advancements in the development of bioactive pyrazoline derivatives” (Eur J Med Chem, 2020).
≈ marks a conversion by molar mass, not a printed value.

How the values were obtained:
A549 = assay: Cytotoxicity against human A549 cells by SRB assay; format: functional
HeLa = assay: Cytotoxicity against human HeLa cells by SRB assay; format: functional
DU-145 = assay: Cytotoxicity against human DU-145 cells by SRB assay; format: functional
HepG2 = assay: Cytotoxicity against human HepG2 cells by SRB assay; format: functional
AGS = assay: Anticancer activity against human AGS cells by MTS assay; format: functional, cell-based
[1] = Anticancer activity against human HCC446 cells by MTS assay; format: functional, cell-based
ECa-109 cell line = assay: Anticancer activity against human Eca-109 cells by MTS assay; format: functional, cell-based
Candida albicans [2] = assay: Antifungal activity against Candida albicans ATCC 2091 by plate dilution method relative to control; format: functional
Klebsiella pneumoniae [3] = assay: Antibacterial activity against Klebsiella pneumoniae ATCC 700603 by plate dilution method; format: functional
Aspergillus niger [4] = assay: Antifungal activity against Aspergillus niger MTCC 281 by plate dilution method relative to control; format: functional
Monascus purpureus = assay: Antifungal activity against Monascus purpureus MTCC 369 by plate dilution method relative to control; format: functional
Aspergillus flavus [5] = assay: Antifungal activity against Aspergillus flavus MTCC 277 by plate dilution method relative to control; format: functional
Pseudomonas aeruginosa [6] = assay: Antibacterial activity against Pseudomonas aeruginosa ATCC 27853 by plate dilution method; format: functional
Enterococcus faecalis = assay: Antibacterial activity against Enterococcus faecalis ATCC 29212 by plate dilution method; format: functional
[7] = tested on: Bordetella bronchiseptica; assay: Antibacterial activity against Bordetella bronchiseptica ATCC 4617 by plate dilution method; format: functional
Staphylococcus aureus [8] = assay: Antibacterial activity against Staphylococcus aureus ATCC 25923 by plate dilution method; format: functional
Bacillus subtilis [9] = assay: Antibacterial activity against Bacillus subtilis ATCC 6633 by plate dilution method; format: functional
Proteus vulgaris = assay: Antibacterial activity against Proteus vulgaris ATCC 9920 by plate dilution method; format: functional
Bacillus cereus = assay: Antibacterial activity against Bacillus cereus ATCC 9946 by plate dilution method; format: functional
[10] = tested on: Staphylococcus epidermidis; assay: Antibacterial activity against Staphylococcus epidermidis ATCC 12228 by plate dilution method; format: functional
Penicillium citrinum = assay: Antifungal activity against Penicillium citrinum NCIM 768 by plate dilution method relative to control; format: functional
Escherichia coli [11] = assay: Antibacterial activity against Escherichia coli ATCC 25922 by plate dilution method; format: functional
Plasmodium falciparum [12] = assay: In vivo antimalarial activity against Plasmodium berghei K173 infected in mouse assessed as reduction in parasitemia at 50 mg/kg, ip measured after 6 days by giemsa staining based microscopic analysis relative to control; format: functional; design: scale not given: the % may be the effect or the level left; conditions: time 6 day
Hemozoin = assay: Inhibition of Beta-hematin in Plasmodium berghei
Plasmodium falciparum [13] = assay: In vivo antimalarial activity against Plasmodium berghei K173 infected in mouse assessed as reduction in parasitemia at 100 mg/kg, ip measured after 6 days by giemsa staining based microscopic analysis relative to control; format: functional; design: scale not given: the % may be the effect or the level left; conditions: time 6 day
Plasmodium falciparum [14] = assay: In vivo antimalarial activity against Plasmodium berghei K173 infected in mouse assessed as chemo-supression percentage at 100 mg/kg, ip by giemsa staining based microscopic analysis relative to control; format: functional
Plasmodium falciparum [15] = assay: In vivo antimalarial activity against Plasmodium berghei K173 infected in mouse assessed as chemo-supression percentage at 50 mg/kg, ip by giemsa staining based microscopic analysis relative to control; format: functional
Plasmodium falciparum [16] = assay: Antimalarial activity against chloroquine-sensitive Plasmodium falciparum NF54 measured after 72 hrs by giemsa staining based analysis; format: functional, organism-based; conditions: NF54, 72 h
Escherichia coli [17] = assay: Potency index, ratio of ampicillin MIC to compound MIC for Escherichia coli by agar dilution method; format: functional
Pseudomonas aeruginosa [18] = assay: Antibacterial activity against Pseudomonas aeruginosa by agar dilution method; format: functional
Bacillus subtilis [19] = assay: Potency index, ratio of ampicillin MIC to compound MIC for Bacillus subtilis by agar dilution method; format: functional
Escherichia coli [20] = assay: Antibacterial activity against Escherichia coli by agar dilution method; format: functional
Bacillus subtilis [21] = assay: Antibacterial activity against Bacillus subtilis by agar dilution method; format: functional
Staphylococcus aureus [22] = assay: Potency index, ratio of ampicillin MIC to compound MIC for Staphylococcus aureus by agar dilution method; format: functional
[23] = Antioxidant activity assessed as DPPH radical scavenging activity; format: functional
Aspergillus niger [24] = assay: Antifungal activity against Aspergillus niger by agar dilution method; format: functional
Candida albicans [25] = assay: Antifungal activity against Candida albicans by agar dilution method; format: functional
Staphylococcus aureus [26] = assay: Antibacterial activity against Staphylococcus aureus by agar dilution method; format: functional
Klebsiella pneumoniae [27] = assay: Antimicrobial activity against Klebsiella pneumoniae; format: functional
Escherichia coli [28] = assay: microbe, parasite or virus in culture
Staphylococcus aureus [29] = assay: microbe, parasite or virus in culture
Mus musculus [30] = species on record: Mus musculus; assay: Antidepressant activity in Swiss albino mouse assessed as decrease in immobility time by forced swimming test; format: functional
Mus musculus [31] = species on record: Mus musculus; assay: Antidepressant activity in Swiss albino mouse assessed as decrease in duration of immobility by tail suspension test relative to control; format: functional; design: scale not given: the % may be the effect or the level left
Mus musculus [32] = species on record: Mus musculus; assay: Antidepressant activity in Swiss albino mouse assessed as decrease in immobility time by tail suspension test; format: functional
Mus musculus [33] = assay: Antidepressant activity in Swiss albino mouse assessed as decrease in duration of immobility at 100 mg/kg, po by forced swimming test relative to control; format: functional; design: scale not given: the % may be the effect or the level left
[34] = tested on: Mycobacterium tuberculosis; format: functional; conditions: time 5 day
[35] = tested on: Mycobacterium tuberculosis; format: functional; conditions: time 5 day; remark: listed apart in the source
Pseudomonas aeruginosa [36] = assay: microbe, parasite or virus in culture; conditions: 24 h
Aspergillus fumigatus = assay: Antifungal activity against Aspergillus fumigatus incubated for 24 hrs by disc diffusion method; format: functional
Aspergillus flavus [37] = assay: Antifungal activity against Aspergillus flavus incubated for 24 hrs by disc diffusion method; format: functional
[38] = tested on: Mycobacterium tuberculosis; format: functional; conditions: time 5 day; remark: listed apart in the source
[39] = tested on: Mycobacterium tuberculosis; assay: microbe, parasite or virus in culture; conditions: 120 h
Candida albicans [40] = assay: microbe, parasite or virus in culture; conditions: 24 h
Staphylococcus aureus [41] = assay: microbe, parasite or virus in culture; conditions: 24 h
Aspergillus niger [42] = assay: Antifungal activity against Aspergillus niger incubated for 24 hrs by disc diffusion method; format: functional
Escherichia coli [43] = assay: Antibacterial activity against Escherichia coli incubated for 24 hrs by disc diffusion method; format: functional
Bacillus subtilis [44] = assay: microbe, parasite or virus in culture; conditions: 24 h
Carbonic anhydrase 2 = Carbonic anhydrase 2 (Homo sapiens, UniProt P00918); assay: Inhibition of human CA2 by UV spectrophotometric analysis
Acetylcholinesterase = Acetylcholinesterase (Homo sapiens, UniProt P22303)
Chain of Acetylcholinesterase (P22303 whole entry): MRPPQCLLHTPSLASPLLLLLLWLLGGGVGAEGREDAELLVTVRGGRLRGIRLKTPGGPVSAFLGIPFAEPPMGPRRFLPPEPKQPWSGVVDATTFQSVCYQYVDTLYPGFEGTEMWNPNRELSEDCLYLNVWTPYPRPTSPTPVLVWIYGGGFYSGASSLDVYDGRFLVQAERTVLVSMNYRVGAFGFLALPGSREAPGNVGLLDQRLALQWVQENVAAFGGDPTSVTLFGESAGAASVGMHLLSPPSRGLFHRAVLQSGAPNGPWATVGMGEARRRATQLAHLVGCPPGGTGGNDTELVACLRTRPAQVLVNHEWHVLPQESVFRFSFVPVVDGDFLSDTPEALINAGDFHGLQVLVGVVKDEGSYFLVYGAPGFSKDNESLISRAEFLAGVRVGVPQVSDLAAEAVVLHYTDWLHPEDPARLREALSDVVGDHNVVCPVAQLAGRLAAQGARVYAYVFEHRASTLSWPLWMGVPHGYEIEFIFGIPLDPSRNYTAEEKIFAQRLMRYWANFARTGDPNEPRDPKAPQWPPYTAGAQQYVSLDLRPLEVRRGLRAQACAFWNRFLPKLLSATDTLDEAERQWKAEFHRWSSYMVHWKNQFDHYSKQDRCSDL

Carbonic anhydrase 1 = Carbonic anhydrase 1 (Homo sapiens, UniProt P00915); assay: Inhibition of human CA1 by UV spectrophotometric analysis
Chain of Carbonic anhydrase 1 (P00915 whole entry): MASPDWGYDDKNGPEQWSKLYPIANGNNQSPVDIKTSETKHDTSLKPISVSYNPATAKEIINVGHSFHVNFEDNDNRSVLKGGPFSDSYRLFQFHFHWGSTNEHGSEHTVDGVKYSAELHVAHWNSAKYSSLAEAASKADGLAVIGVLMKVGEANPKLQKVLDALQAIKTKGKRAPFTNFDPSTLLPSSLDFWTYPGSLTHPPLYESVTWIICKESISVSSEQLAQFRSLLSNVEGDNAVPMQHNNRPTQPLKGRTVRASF

Staphylococcus aureus [45] = assay: microbe, parasite or virus in culture; remark: listed apart in the source
[46] = Inhibition of Bacillus subtilis DNA gyrase
Bacillus subtilis [47] = assay: microbe, parasite or virus in culture

COc1ccc(C2CC(c3cc(OC)c(OC)c(OC)c3)=NN2C(C)=O)cc1OCc1cn(Cc2ccc(F)c(Cl)c2)nn1 (stereo not drawn)
GI50 (A549): 7 µM | GI50 (HeLa): 7 µM | GI50 (DU-145): 7 µM | GI50 (HepG2): 7 µM

C[C@]12CCC3(CC1=CCC1C2CC[C@]2(C)C4=NN[C@H](c5ccccc5)[C@H]4CC12)OCCO3 (stereo partly drawn)
IC50 (AGS): 27.4 µM | IC50 [1]: 25.3 µM | IC50 (ECa-109 cell line): 17.5 µM

O=c1oc2ccc(F)cc2cc1-c1csc(N2N=C(c3ccc(F)cc3)CC2c2cc3ccccc3nc2Cl)n1 (stereo not drawn)
Activity (Candida albicans [2]): 98.95% | MIC (Klebsiella pneumoniae [3]): 50 µg/mL (≈ 87.6 µM) | Activity (Aspergillus niger [4]): 83.59% | Activity (Monascus purpureus): 79.72% | Activity (Aspergillus flavus [5]): 98% | MIC (Pseudomonas aeruginosa [6]): 50 µg/mL (≈ 87.6 µM) | MIC (Enterococcus faecalis): 50 µg/mL (≈ 87.6 µM) | MIC [7]: 50 µg/mL (≈ 87.6 µM) | MIC (Staphylococcus aureus [8]): 50 µg/mL (≈ 87.6 µM) | MIC (Bacillus subtilis [9]): 50 µg/mL (≈ 87.6 µM) | MIC (Proteus vulgaris): 50 µg/mL (≈ 87.6 µM) | MIC (Bacillus cereus): 50 µg/mL (≈ 87.6 µM) | MIC [10]: 50 µg/mL (≈ 87.6 µM) | Activity (Penicillium citrinum): 91.42% | MIC (Escherichia coli [11]): 50 µg/mL (≈ 87.6 µM)

COc1cc(C)c(C2C=C(c3cc(OC)c(OC)c(OC)c3)N(C(=O)OC(C)C)N2C(=O)OC(C)C)cc1C(C)C (stereo not drawn)
Activity (Plasmodium falciparum [12]): 8.03% | IC50 (Hemozoin): 38.8 µM | Activity (Plasmodium falciparum [13]): 4.62% | Activity (Plasmodium falciparum [14]): 55.6% | Activity (Plasmodium falciparum [15]): 25.29% | IC50 (Plasmodium falciparum [16]): < 2 µM

COc1cccc2cc(/C=C/C(=O)c3cc(Br)ccc3O)c3nnnn3c12
Ratio (Escherichia coli [17]): 2 | MIC (Pseudomonas aeruginosa [18]): 25 µg/mL (≈ 58.8 µM) | Ratio (Bacillus subtilis [19]): 5 | MIC (Escherichia coli [20]): 50 µg/mL (≈ 118 µM) | MIC (Bacillus subtilis [21]): 50 µg/mL (≈ 118 µM) | Ratio (Staphylococcus aureus [22]): 5 | IC50 [23]: 22.4 µg/mL (≈ 52.7 µM) | MIC (Aspergillus niger [24]): 25 µg/mL (≈ 58.8 µM) | MIC (Candida albicans [25]): 25 µg/mL (≈ 58.8 µM) | MIC (Staphylococcus aureus [26]): 50 µg/mL (≈ 118 µM)

CCOC(=O)C1N=NN(CC(=O)N2N=C(c3ccccc3)CC2c2cccs2)C1C(=O)OCC (stereo not drawn)
MIC (Klebsiella pneumoniae [27]): 15 µg/mL (≈ 31 µM) | MIC (Escherichia coli [28]): 3.9 µg/mL (≈ 8.07 µM) | MIC (Staphylococcus aureus [29]): 3.9 µg/mL (≈ 8.07 µM)

COc1cc(C2CC(c3ccc(-c4cc(F)cc(F)c4)nc3C)=NN2)cc(OC)c1OC (stereo not drawn)
Time (Mus musculus [30]): 66.67 s | Activity (Mus musculus [31]): 64.56% | Time (Mus musculus [32]): 70.33 s | Activity (Mus musculus [33]): 66.58%

O=C(NNS(=O)(=O)c1ccccc1)N1N=C(c2ccccc2)CC1c1ccccc1 (stereo not drawn)
Ratio [34]: 3.9 | Ratio [35]: 3.9 | MIC (Pseudomonas aeruginosa [36]): 25 µg/mL (≈ 59.5 µM) | MIC (Aspergillus fumigatus): 25 µg/mL (≈ 59.5 µM) | MIC (Aspergillus flavus [37]): 25 µg/mL (≈ 59.5 µM) | Ratio [38]: 7.81 | MIC [39]: 0.8 µg/mL (≈ 1.9 µM) | MIC (Candida albicans [40]): 25 µg/mL (≈ 59.5 µM) | MIC (Staphylococcus aureus [41]): 25 µg/mL (≈ 59.5 µM) | MIC (Aspergillus niger [42]): 25 µg/mL (≈ 59.5 µM) | MIC (Escherichia coli [43]): 25 µg/mL (≈ 59.5 µM) | MIC (Bacillus subtilis [44]): 25 µg/mL (≈ 59.5 µM)

COc1ccc(C2CC(c3ccc(Cl)cc3)=NN2c2ccc(S(N)(=O)=O)cc2)cc1OC (stereo not drawn)
Ki (Carbonic anhydrase 2): 0.0274 µM | Ki (Acetylcholinesterase): 0.0377 µM | Ki (Carbonic anhydrase 1): 0.0279 µM

CC(=O)N1N=C(c2ccc(C)cc2)CC1c1cc(Cl)ccc1Oc1c([N+](=O)[O-])cc(C(F)(F)F)cc1[N+](=O)[O-] (stereo not drawn)
MIC (Staphylococcus aureus [45]): 0.39 µg/mL (≈ 0.693 µM) | IC50 [46]: 0.125 µg/mL (≈ 0.222 µM) | MIC (Bacillus subtilis [47]): 0.39 µg/mL (≈ 0.693 µM)
